# Results: patent US6242440A, “Synergistic compositions comprising an oxathiazine and a benzothiophene-2-carboxamide-S,S-dioxide” (Janssen Pharmaceutica N.V., priority 1997, dated 2001)
# Assays:
# Sclerophoma = assay: wood stick test (Scots Pine); type: cell-based, Sclerophoma entoxylina
# Protocol: (§1) Oven-dried wood sticks (50×12×2 mm) of Scots Pine (Pinus sylvestris) were dipped during 3 hours in a methanol solution comprising a compound of formula (I), a compound of formula (II), or a combination of a compound of formula (I) and a compound of formula (II), and allowed to dry overnight in a sterile laminar air flow. In each Petri dish one stick was placed on culture medium, PDA PS (Potato Dextrose Agar containing 60 mg penicillin and 200 mg streptomycin), previously seeded with inoculum. Two drops of fungal or spore suspension were pipetted on the upper surface of the stick The Petri dishes were incubated at 22° C. and 70% relative humidity. The test was evaluated after sufficient growth of the fungus on the control sticks. The following score system was used:
# (§2) 0: sticks free of fungal growth
# (§3) 1: traces of growth on the stick
# (§4) 2: slight growth (5 to 25% of the surface covered)
# (§5) 3 : moderate growth (25 to 50% of the surface covered)
# (§6) 4: vigorous to maximum growth (more tha 50% covered)
# (§7) To calculate synergism results were converted to the next artificial activities:
# (§8) Yhe expected activities E were calculated by using the so-called formula of Colby: (Colby, S. R. Weeds 1967, 15: 20-22), [formula]
# (§9) wherein X and Y express the relative activities obtained for each of the active ingredients. A synergistic effect can be acknowledged if the found activity exceeds calculated activity.
# (§10) The compound of formula (I) used in the experiment was 3-benzo[b]-thien-2-yl)-5,6-dihydro-1,4,2-oxathiazine 4-oxide, i.e. compound (1). The compound of formula (II) used in the experiment was N-cyclohexyl-benzothiophene-2-carboxamide-S,S-dioxide, i.e. compound (2).
# Aspergillus = assay: wood stick test (Scots Pine); type: cell-based, Aspergillus niger
# Protocol: as §1, §2, §3, §4, §5, §6, §7, §8, §9, §10
# Sclerophoma entoxylina = assay: poison plate assay, mycelial growth and sporulation; type: cell-based
# Protocol: (§11) The efficacy of the active ingredients against mycelial growth and sporulation of Aureobasidium pullulans, Aspergillus niger, Scierophoma entoxylina, Trichodenna viride, was determined in the poison plate assay. The required concentrations of the fungicide(s) were obtained by diluting the active ingredients (I), (II) or the combination of (I) and (II) in dimethyl sulfoxide (DMSO) at 800 times the final test concentration. The stock solutions in DMSO were pipetted into Petri-dishes. Malt extract agar (3%) was added aseptically and uniform distribution was obtained by shaking. Each plate was spot inoculated with a spore or mycelial suspension. After incubation at 22° C. and 70% relative humidity for a period long enough to allow complete growth of controls, diameters of colonies were measured. Relative activities were calculated by taking the absence of fungal growth (diameter 0 mm) as 100%. From the activity of the active ingredients alone, the expected activities E were calculated by using the so-called formula of Colby: (Colby, S. R. Weeds 1967, 15: 20-22), [formula]
# as §9
# (§12) Equal efficacy was observed whenever complete inhibition of fungal growth occurred by one of the active ingredients (I) or (II) alone. The compound of formula (I) used in the experiment was 3-benzo[b]-thien-2-yl)-5,6-dihydro-1,4,2-oxathiazine 4-oxide, i.e. compound (1). The compound of formula (II) used in the experiment was N-cyclohexyl-benzothiophene-2-carboxamide-S,S-dioxide, i.e. compound (2).
# Aureobasidium pullulans = assay: as above; type: cell-based
# Protocol: as §11, §9, §12
# Aspergillus niger = assay: as above; type: cell-based
# Protocol: as §11, §9, §12
# Trichoderma viride = assay: as above; type: cell-based
# Protocol: as §11, §9, §12
# Aureobasidium = assay: wood stick test (Scots Pine); type: cell-based, Aureobasidium pullulans; details: read-out: measured (relative) activity %
# Protocol: as §1, §2, §3, §4, §5, §6, §7, §8, §9, §10
compound,measurement,setting,value
"O=C(NC1CCCCC1)C1=Cc2ccccc2S1(=O)=O [compound (2), N-cyclohexyl-benzothiophene-2-carboxamide-S,S-dioxide]",% overgrown of the sticks,Sclerophoma; (2) 200 ppm,100%
same,stick test scores,Sclerophoma; (2) 200 ppm,4 (vigorous to maximum growth (more tha 50% covered))
same,% overgrown of the sticks,Sclerophoma; (2) 400 ppm,100%
same,stick test scores,Sclerophoma; (2) 400 ppm,4 (vigorous to maximum growth (more tha 50% covered))
same,% overgrown of the sticks,Sclerophoma; (2) 800 ppm,25%
same,stick test scores,Sclerophoma; (2) 800 ppm,2 (slight growth (5 to 25% of the surface covered))
same,activity at 200 ppm,"Sclerophoma; Sclerophoma entoxylina, (2) 200 ppm, read-out: measured (relative) activity %",0%
same,activity at 400 ppm,"Sclerophoma; Sclerophoma entoxylina, (2) 400 ppm, read-out: measured (relative) activity %",0%
same,activity at 800 ppm,"Sclerophoma; Sclerophoma entoxylina, (2) 800 ppm, read-out: measured (relative) activity %",75%
same,% overgrown of the sticks,Aspergillus; (2) 200 ppm,100%
same,stick test scores,Aspergillus; (2) 200 ppm,4 (vigorous to maximum growth (more tha 50% covered))
same,% overgrown of the sticks,Aspergillus; (2) 400 ppm,100%
same,stick test scores,Aspergillus; (2) 400 ppm,4 (vigorous to maximum growth (more tha 50% covered))
same,% overgrown of the sticks,Aspergillus; (2) 800 ppm,100%
same,stick test scores,Aspergillus; (2) 800 ppm,4 (vigorous to maximum growth (more tha 50% covered))
same,activity at 200 ppm,"Aspergillus; Aspergillus, (2) 200 ppm, read-out: measured (relative) activity %",0%
same,activity at 400 ppm,"Aspergillus; Aspergillus, (2) 400 ppm, read-out: measured (relative) activity %",0%
same,activity at 800 ppm,"Aspergillus; Aspergillus, (2) 800 ppm, read-out: measured (relative) activity %",0%
same,activity measured,"Sclerophoma entoxylina; Exp 1, 5 days, (2) 2.5 mg/l",7%
same,growth,"Sclerophoma entoxylina; Exp 1, 5 days, (2) 2.5 mg/l",40 mm
same,activity measured,"Sclerophoma entoxylina; Exp 1, 5 days, (2) 5 mg/l",16%
same,growth,"Sclerophoma entoxylina; Exp 1, 5 days, (2) 5 mg/l",36 mm
same,activity measured,"Sclerophoma entoxylina; Exp 1, 5 days, (2) 10 mg/l",19%
same,growth,"Sclerophoma entoxylina; Exp 1, 5 days, (2) 10 mg/l",35 mm
same,activity measured,"Sclerophoma entoxylina; Exp 1, 5 days, (2) 20 mg/l",40%
same,growth,"Sclerophoma entoxylina; Exp 1, 5 days, (2) 20 mg/l",26 mm
same,activity measured,"Sclerophoma entoxylina; Exp 2, 7 days, (2) 2.5 mg/l",2%
same,growth,"Sclerophoma entoxylina; Exp 2, 7 days, (2) 2.5 mg/l",48 mm
same,activity measured,"Sclerophoma entoxylina; Exp 2, 7 days, (2) 5 mg/l",4%
same,growth,"Sclerophoma entoxylina; Exp 2, 7 days, (2) 5 mg/l",47 mm
same,activity measured,"Sclerophoma entoxylina; Exp 2, 7 days, (2) 10 mg/l",16%
same,growth,"Sclerophoma entoxylina; Exp 2, 7 days, (2) 10 mg/l",41 mm
same,activity measured,"Sclerophoma entoxylina; Exp 2, 7 days, (2) 20 mg/l",29%
same,growth,"Sclerophoma entoxylina; Exp 2, 7 days, (2) 20 mg/l",35 mm
same,activity measured,"Aureobasidium pullulans; Exp 1, 5 days, (2) 2.5 mg/l",8%
same,growth,"Aureobasidium pullulans; Exp 1, 5 days, (2) 2.5 mg/l",35 mm
same,activity measured,"Aureobasidium pullulans; Exp 1, 5 days, (2) 5 mg/l",16%
same,growth,"Aureobasidium pullulans; Exp 1, 5 days, (2) 5 mg/l",32 mm
same,activity measured,"Aureobasidium pullulans; Exp 1, 5 days, (2) 10 mg/l",37%
same,growth,"Aureobasidium pullulans; Exp 1, 5 days, (2) 10 mg/l",24 mm
same,activity measured,"Aureobasidium pullulans; Exp 1, 5 days, (2) 20 mg/l",53%
same,growth,"Aureobasidium pullulans; Exp 1, 5 days, (2) 20 mg/l",18 mm
same,activity measured,"Aureobasidium pullulans; Exp 2, 7 days, (2) 2.5 mg/l",2%
same,growth,"Aureobasidium pullulans; Exp 2, 7 days, (2) 2.5 mg/l",47 mm
same,activity measured,"Aureobasidium pullulans; Exp 2, 7 days, (2) 5 mg/l",6%
same,growth,"Aureobasidium pullulans; Exp 2, 7 days, (2) 5 mg/l",45 mm
same,activity measured,"Aureobasidium pullulans; Exp 2, 7 days, (2) 10 mg/l",8%
same,growth,"Aureobasidium pullulans; Exp 2, 7 days, (2) 10 mg/l",44 mm
same,activity measured,"Aureobasidium pullulans; Exp 2, 7 days, (2) 20 mg/l",23%
same,growth,"Aureobasidium pullulans; Exp 2, 7 days, (2) 20 mg/l",37 mm
same,activity measured,"Aspergillus niger; Exp 1, 5 days, (2) 2.5 mg/l",0%
same,growth,"Aspergillus niger; Exp 1, 5 days, (2) 2.5 mg/l",44 mm
same,activity measured,"Aspergillus niger; Exp 1, 5 days, (2) 5 mg/l",5%
same,growth,"Aspergillus niger; Exp 1, 5 days, (2) 5 mg/l",42 mm
same,activity measured,"Aspergillus niger; Exp 1, 5 days, (2) 10 mg/l",23%
same,growth,"Aspergillus niger; Exp 1, 5 days, (2) 10 mg/l",34 mm
same,activity measured,"Aspergillus niger; Exp 1, 5 days, (2) 20 mg/l",70%
same,growth,"Aspergillus niger; Exp 1, 5 days, (2) 20 mg/l",13 mm
same,activity measured,"Aspergillus niger; Exp 2, 7 days, (2) 2.5 mg/l",2%
same,growth,"Aspergillus niger; Exp 2, 7 days, (2) 2.5 mg/l",44 mm
same,activity measured,"Aspergillus niger; Exp 2, 7 days, (2) 5 mg/l",2%
same,growth,"Aspergillus niger; Exp 2, 7 days, (2) 5 mg/l",44 mm
same,activity measured,"Aspergillus niger; Exp 2, 7 days, (2) 10 mg/l",9%
same,growth,"Aspergillus niger; Exp 2, 7 days, (2) 10 mg/l",41 mm
same,activity measured,"Aspergillus niger; Exp 2, 7 days, (2) 20 mg/l",36%
same,growth,"Aspergillus niger; Exp 2, 7 days, (2) 20 mg/l",29 mm
same,activity measured,"Trichoderma viride; Exp 1, 5 days, (2) 2.5 mg/l",0%
same,growth,"Trichoderma viride; Exp 1, 5 days, (2) 2.5 mg/l",49 mm
same,activity measured,"Trichoderma viride; Exp 1, 5 days, (2) 5 mg/l",0%
same,growth,"Trichoderma viride; Exp 1, 5 days, (2) 5 mg/l",49 mm
same,activity measured,"Trichoderma viride; Exp 1, 5 days, (2) 10 mg/l",0%
same,growth,"Trichoderma viride; Exp 1, 5 days, (2) 10 mg/l",49 mm
same,activity measured,"Trichoderma viride; Exp 1, 5 days, (2) 20 mg/l",14%
same,growth,"Trichoderma viride; Exp 1, 5 days, (2) 20 mg/l",42 mm
same,activity measured,"Trichoderma viride; Exp 2, 7 days, (2) 2.5 mg/l",0%
same,growth,"Trichoderma viride; Exp 2, 7 days, (2) 2.5 mg/l",49 mm
same,activity measured,"Trichoderma viride; Exp 2, 7 days, (2) 5 mg/l",0%
same,growth,"Trichoderma viride; Exp 2, 7 days, (2) 5 mg/l",49 mm
same,activity measured,"Trichoderma viride; Exp 2, 7 days, (2) 10 mg/l",8%
same,growth,"Trichoderma viride; Exp 2, 7 days, (2) 10 mg/l",45 mm
same,activity measured,"Trichoderma viride; Exp 2, 7 days, (2) 20 mg/l",24%
same,growth,"Trichoderma viride; Exp 2, 7 days, (2) 20 mg/l",37 mm
same,activity at 200 ppm,Aureobasidium; (2) 200 ppm,0%
same,activity at 400 ppm,Aureobasidium; (2) 400 ppm,75%
same,activity at 800 ppm,Aureobasidium; (2) 800 ppm,95%
